Test: in vitro
Conditions: human, hek293t cells

| Compound | viability at 48 h, 25 µM [%] |
| --- | --- |
| Cc1cnc(C(C)N2CCN(C(=O)C(C)Cl)CC2)s1 (centres unmarked) [7-M03, 2-chloro-1-{4-[1-(5-methyl-1,3-thiazol-2-yl)ethyl]piperazin-1-yl}propan-1-one] | 97.5 |
| CC(Cl)C(=O)N(C)Cc1cn(C)nc1C(F)(F)F (centres unmarked) [7-M04, 2-chloro-N-methyl-N-{[1-methyl-3-(trifluoromethyl)-1H-pyrazol-4-yl]methyl}propanamide] | 91.6 |
| CC(Cl)C(=O)NCC1CCCN(c2nccn3cnnc23)C1 (centres unmarked) [7-M05, 2-chloro-N-[(1-{[1,2,4]triazolo[4,3-a]pyrazin-8-yl}piperidin-3-yl)methyl]propanamide] | 102 |
| CCc1nocc1CN(C)C(=O)C(C)Cl (centres unmarked) [7-M06, 2-chloro-N-[(3-ethyl-1,2-oxazol-4-yl)methyl]-N-methylpropanamide] | 95.1 |
| Cc1nnsc1CNC(=O)C(C)Cl (centres unmarked) [7-M07, 2-chloro-N-[(4-methyl-1,2,3-thiadiazol-5-yl)methyl]propanamide] | 89 |
| CC(Cl)C(=O)NC(Cn1cncn1)c1ccccc1 (centres unmarked) [7-M09, 2-chloro-N-[1-phenyl-2-(1H-1,2,4-triazol-1-yl)ethyl]propanamide] | 90.3 |
| CC(Cl)C(=O)N1CC(c2cc(CO)on2)C1 (centres unmarked) [7-M10, 2-chloro-1-{3-[5-(hydroxymethyl)-1,2-oxazol-3-yl]azetidin-1-yl}propan-1-one] | 84.9 |
| CC(Cl)C(=O)NCCCN1CCc2ccccc2C1 (centres unmarked) [7-M11, 2-chloro-N-[3-(1,2,3,4-tetrahydroisoquinolin-2-yl)propyl]propanamide] | 88.4 |
| Cc1cccc2nc(C3CCN(C(=O)C(C)Cl)CC3)oc12 (centres unmarked) [7-M12, 2-chloro-1-[4-(7-methyl-1,3-benzoxazol-2-yl)piperidin-1-yl]propan-1-one] | 79.6 |
| CC(Cl)C(=O)NCc1cnn2ccccc12 (centres unmarked) [7-M13, 2-chloro-N-({pyrazolo[1,5-a]pyridin-3-yl}methyl)propanamide] | 104 |
| CC(Cl)C(=O)N(C)C1CS(=O)(=O)c2ccc(Cl)cc21 (centres unmarked) [7-M14, 2-chloro-N-(5-chloro-1,1-dioxo-2,3-dihydro-1lambda6-benzothiophen-3-yl)-N-methylpropanamide] | 73 |
| CC(Cl)C(=O)N1CC(S(=O)(=O)c2ccccc2F)C1 (centres unmarked) [7-M15, 2-chloro-1-[3-(2-fluorobenzenesulfonyl)azetidin-1-yl]propan-1-one] | 96.3 |
| CC(Cl)C(=O)N1CCCC(c2cnn(C)c2)C1 (centres unmarked) [7-M16, 2-chloro-1-[3-(1-methyl-1H-pyrazol-4-yl)piperidin-1-yl]propan-1-one] | 82 |
| CC(Cl)C(=O)NC(c1cccc(C(F)(F)F)c1)c1nnc[nH]1 (centres unmarked) [7-M17, 2-chloro-N-[(4H-1,2,4-triazol-3-yl)[3-(trifluoromethyl)phenyl]methyl]propanamide] | 75.1 |
| CC(Cl)C(=O)NCCc1cnc2c(Cl)cnn2c1 (centres unmarked) [7-M18, 2-chloro-N-(2-{3-chloropyrazolo[1,5-a]pyrimidin-6-yl}ethyl)propanamide] | 90.6 |
| Cc1cc(NC(=O)CN(C)C(=O)C(C)Cl)no1 (centres unmarked) [7-M19, 2-chloro-N-methyl-N-{[(5-methyl-1,2-oxazol-3-yl)carbamoyl]methyl}propanamide] | 79.5 |
| COCc1ncc2c(n1)CC1CCC2N1C(=O)C(C)Cl (centres unmarked) [7-M20, 2-chloro-1-[5-(methoxymethyl)-4,6,12-triazatricyclo[7.2.1.0,2,7]dodeca-2,4,6-trien-12-yl]propan-1-one] | 77 |
| CC(Cl)C(=O)NC(C)C(=O)N1CCc2ccccc21 (centres unmarked) [7-M21, 2-chloro-N-[1-(2,3-dihydro-1H-indol-1-yl)-1-oxopropan-2-yl]propanamide] | 84.1 |
| CC(NC(=O)CCl)c1nc2c(s1)CCCCC2 (centres unmarked) [7-M22, 2-chloro-N-(1-{4H,5H,6H,7H,8H-cyclohepta[d][1,3]thiazol-2-yl}ethyl)acetamide] | 0.506 |
| O=C(CCl)NC(Cn1cncn1)c1ccccc1 (centres unmarked) [7-N03, 2-chloro-N-[1-phenyl-2-(1H-1,2,4-triazol-1-yl)ethyl]acetamide] | 0.644 |
